In patent publication US6680340B2, “Anti-hypercholesterolemic drug combination” (Merck & Co., Inc., priority 2000, dated 2004):

Columns and labels:
Serum cholesterol = Serum cholesterol lowering in dogs dosed 15 days with fenofibrate, CGS23425 or the combination; type: in vivo
Experimental: Dogs were administered 50 mg/kg/day fenofibrate alone, 10 μg/kg/day CGS23425 alone, or the combination of 50 mg/kg/day fenofibrate +10 μg/kg/day CGS23425 for a period of 15 days. Cholesterol lowering was measured on treatment days 6, 8, 10, 13, 14, and 15.

Serum total cholesterol = Serum total cholesterol lowering in rats dosed 9 days with CGS23425 in diet with and without fenofibrate
Experimental: Male Sprague-Dawley rats (wt 125-150 g, 10 per group) were acclimated for one week with a normal chow (Purina #5001 powder) and had free access to drinking water. The animals, with increased weight to about 200 to 250 grams, were dosed 9 days with various doses of CGS23425 (0, 0.005, 0.05 and 0.5 ppm in diet, where total diet consumption was about 10 to 15 grams per day) with and without the presence of 25 mg/kg of body weight of fenofibrate given via oral gavage once a day. After the dosing period, the animals were fasted for 18 hours and euthanized and the blood was withdrawn via cardiac puncture.

For `Cc1cc(NC(=O)C(=O)O)cc(C)c1Oc1ccc(O)c(C(C)C)c1` [CGS23425, N-[3,5-dimethyl-4-(4′-hydroxy-3′-isopropylphenoxy)-phenyl]-oxamic acid], the “Serum cholesterol lowering in dogs (% reduction)” value (Serum cholesterol; CGS23425 10 μg/kg/day alone, treatment day 6) was 13 ± 1.2 % reduction, the “Serum cholesterol lowering in dogs (% reduction)” value (Serum cholesterol; CGS23425 10 μg/kg/day alone, treatment day 8) was 15.4 ± 2.3 % reduction and the “Serum cholesterol lowering in dogs (% reduction)” value (Serum cholesterol; CGS23425 10 μg/kg/day alone, treatment day 10) was 18.4 ± 3.0 % reduction. The “Serum cholesterol lowering in dogs (% reduction)” value (Serum cholesterol; CGS23425 10 μg/kg/day alone, treatment day 13) was 22.9 ± 2.5 % reduction, the “Serum cholesterol lowering in dogs (% reduction)” value (Serum cholesterol; CGS23425 10 μg/kg/day alone, treatment day 14) was 21.1 ± 3.9 % reduction and the “Serum cholesterol lowering in dogs (% reduction)” value (Serum cholesterol; CGS23425 10 μg/kg/day alone, treatment day 15) was 24.3 ± 1.7 % reduction. For the same compound, the “Serum cholesterol lowering in rats (% reduction)” value (Serum total cholesterol; CGS23425 0.005 ppm in diet alone (fenofibrate 0 mg/kg)) was 4 ± 6 % reduction, the “Serum cholesterol lowering in rats (% reduction)” value (Serum total cholesterol; CGS23425 0.05 ppm in diet alone (fenofibrate 0 mg/kg)) was 9±4 % reduction and the “Serum cholesterol lowering in rats (% reduction)” value (Serum total cholesterol; CGS23425 0.5 ppm in diet alone (fenofibrate 0 mg/kg)) was 3 ± 7 % reduction.

`CC(C)OC(=O)C(C)(C)Oc1ccc(C(=O)c2ccc(Cl)cc2)cc1` [Fenofibrate, fenofibrate] was tested, and the “Serum cholesterol lowering in dogs (% reduction)” value (Serum cholesterol; fenofibrate 50 mg/kg/day alone, treatment day 6) was 0.1 ± 2.5 % reduction, the “Serum cholesterol lowering in dogs (% reduction)” value (Serum cholesterol; fenofibrate 50 mg/kg/day alone, treatment day 8) was 3.5 ± 1.8 % reduction and the “Serum cholesterol lowering in dogs (% reduction)” value (Serum cholesterol; fenofibrate 50 mg/kg/day alone, treatment day 10) was 8.6 ± 3.4 % reduction. The “Serum cholesterol lowering in dogs (% reduction)” value (Serum cholesterol; fenofibrate 50 mg/kg/day alone, treatment day 13) was 12.1 ± 4.3 % reduction, the “Serum cholesterol lowering in dogs (% reduction)” value (Serum cholesterol; fenofibrate 50 mg/kg/day alone, treatment day 14) was 12.4 ± 7.5 % reduction and the “Serum cholesterol lowering in dogs (% reduction)” value (Serum cholesterol; fenofibrate 50 mg/kg/day alone, treatment day 15) was 14.3 ± 4.0 % reduction. For the same compound, the “Serum cholesterol lowering in rats (% reduction)” value (Serum total cholesterol; fenofibrate 25 mg/kg oral gavage once a day alone (CGS23425 0 ppm), fasted 18 hours) was 12 ± 5 % reduction and the “Serum cholesterol lowering in rats (% reduction)” value (Serum total cholesterol; fenofibrate 25 mg/kg oral gavage once a day alone (CGS23425 0 ppm), fasted 18 hours, listed as fenofibrate) was 12±5 % reduction.
